Here are results for 2 molecules from US20100210616A1, “METAL COMPLEXES INCORPORATED WITHIN BIODEGRADABLE NANOPARTICLES AND THEIR USE” (THE UNIVERSITY OF AKRON, priority 2007, published 2010).

The subject of test [1] is P. aeruginosa (PAO1, PAM57-15 and PAJG3), B. cepacia (PC783), B. multivorans (HI2229), B. cenocepacia (J2315), B. dolosa, M. tuberculosis and control E. coli …. Nature of the test: MIC testing against panel of bacterial strains. Format: cell-based. Particulars: prior to loading in nanoparticles; for MIC range: panel of strains.
Test [2] is described as follows: MIC testing against panel of bacterial strains. The test is classed as cell-based. Particulars: panel of strains; prior to loading in nanoparticles.
Test [3] relates to silver sensitive E. coli J53. The test is described as follows: MIC against silver sensitive E. coli J53. The following applies: Escherichia coli. The test is classed as cell-based.
The test system of test [4] is J53 containing the silver resistance plasmid pMG101. The test is described as follows: microbe, parasite or virus in culture. The test is classed as cell-based, E. coli. The following applies: Escherichia coli.
For another test, the system named is M. tuberculosis. Nature of the test: MIC against M. tuberculosis. The test is classed as cell-based. The following applies: Mycobacterium tuberculosis.

As a reminder, the MIC90 is the lowest concentration that inhibits either 90% of growth or 90% of the strains tested, depending on the study. Read a high MIC90 as weaker potency.

SMILES strings stand for the structures. Bounds are passed on as bounds.

For the molecule `CCCCCCN1C(Cl)=C(Cl)N(C)[CH]1[Ag][O]C(C)=O` (stereo not drawn) [compound 9], the MIC range in test [1] is 1 to 2 µg/mL. For the same molecule, in test [1], the “antimicrobial effectiveness in MIC testing versus other more water soluble silver metal complexes” value is listed as “more effective”. Besides, the MIC90 in test [2] is 1 µg/mL. The MIC in test [3] was 1 µg/mL; in test [4], > 10 µg/mL; in the test with M. tuberculosis, 16000 µg/mL.
With `CC(=O)[O][Ag][CH]1N(C)c2c(n(C)c(=O)n(Cc3ccc4ccccc4c3)c2=O)N1C` (stereo not drawn) [compound 13], the MIC range in test [1] was 0.8 to 2 µg/mL. For the same molecule, the “antimicrobial effectiveness in MIC testing versus other more water soluble silver metal complexes” value in test [1] was “more effective”. The molecule also registered an MIC90 in test [2] of 0.8 µg/mL. Besides, the results for the MIC (in test [3]; in test [4]; with M. tuberculosis) were 1 µg/mL, > 10 µg/mL and 16000 µg/mL, respectively.
